Where two headings read alike, the source gives them in different places.
Experiments:
Assay type in all cases: in vivo
Ambrosia artemisiifolia = experiment: Greenhouse pre-emergence (PRE) herbicidal test on AMBEL; conditions: Ambrosia artemisiifolia, pre-emergence; for inhibition at 4 g/ha: use rate 4 gai/ha; for inhibition at 8 g/ha: use rate 8 gai/ha
Avena fatua = experiment: Greenhouse pre-emergence (PRE) herbicidal test on AVEFA; conditions: use rate 8 gai/ha
Summary of the method: (§1)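 Seeds sown in loamy sand (~3.0% humus); compounds in water applied by fine nozzles directly after sowing, then pots irrigated and hooded until rooting. Plants held at 10-25° C or 20-35° C by species; damage scored 0-100 (100 = no emergence/complete destruction) 20 days after treatment.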

Brachiaria decumbens = experiment: Greenhouse pre-emergence (PRE) herbicidal test on BRADC; conditions: Urochloa decumbens, use rate 8 gai/ha
Summary of the method: as §1

Commelina benghalensis [1] = experiment: Greenhouse pre-emergence (PRE) herbicidal test on COMBE
Summary of the method: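 Seeds were sown per species in loamy sand with ~3.0% humus, treated pre-emergence and kept at 10-25° C or 20-35° C depending on species. Damage was scored at 20 days after treatment on a 0-100 scale (100 = no emergence or complete destruction of above-ground parts, 0 = no damage).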

Echinochloa crus-galli [2] = experiment: Greenhouse pre-emergence (PRE) herbicidal test on ECHCG; conditions: Echinochloa crus-galli, pre-emergence, PRE
Polygonum convolvulus = experiment: Greenhouse pre-emergence (PRE) herbicidal test on POLCO; conditions: Fallopia convolvulus, pre-emergence, use rate 8 gai/ha
Excerpt: The culture containers used were plastic pots containing loamy sand with approximately 3.0% of humus as substrate. The seeds of the test plants were sown separately for each species.
For the pre-emergence treatment, the active compounds, suspended or emulsified in water, were applied directly after sowing by means of finely distributing nozzles. The containers were irrigated gently to promote germination and growth and subsequently covered with transparent plastic hoods until the plants had rooted. This cover caused uniform germination of the test plants unless this was adversely affected by the active compounds.
Depending on the species, the plants were kept at 10-25° C. and 20-35° C., respectively.
The test period extended over 2 to 4 weeks. During this time, the plants were tended and their response to the individual treatments was evaluated.
Evaluation was carried out using a scale from 0 to 100. 100 means no emergence of the plants, or complete destruction of at least the above-ground parts, and 0 means no damage or normal course of growth. A good herbicidal activity is given at values of at least 70, and very good herbicidal activity is given at values of at least 85.
If not stated differently, the respective components A and B, and if appropriate, C were formulated as a 5% by weight strength emulsion concentrate and, with addition of the amount of solvent system, introduced into the spray liquor used for applying the active compound.
As indicated application was either post emergent (POST) at the respective growth stage (GS) of the weed (BBCH code), or pre-emergent (PRE).
Assessment was 20 days after treatment (DAT).

Amaranthus retroflexus = experiment: Greenhouse post-emergence (POST) herbicidal test on AMARE; conditions: Amaranthus retroflexus, post-emergence
Summary of the method: (§2)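 Weeds grown in loamy sand (~3.0% humus) to 3–15 cm were sprayed post-emergence with compounds suspended or emulsified in water, formulated as 5% emulsion concentrates. Plants were kept at 10-25 °C or 20-35 °C by species. Damage was scored 0–100 (100 = complete destruction) at 20 DAT.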

Commelina benghalensis [3] = experiment: Greenhouse post-emergence (POST) herbicidal test on COMBE; conditions: 480 h, use rate 4 gai/ha, 20 DAT
Summary of the method: as §2

Echinochloa crus-galli [4] = experiment: Greenhouse post-emergence (POST) herbicidal test on ECHCG; conditions: Echinochloa crus-galli, post-emergence; for inhibition at 4 g/ha: use rate 4 gai/ha
Summary of the method: as §2

Setaria viridis = experiment: Greenhouse post-emergence (POST) herbicidal test on SETVI; conditions: 480 h, 20 DAT
Summary of the method: as §2

AMAPA [5] = experiment: Greenhouse pre-emergence (PRE) herbicidal test on AMAPA; conditions: pre-emergence; for inhibition at 8 g/ha: use rate 8 gai/ha
AMAPA [6] = experiment: Greenhouse post-emergence (POST) herbicidal test on AMAPA; conditions: post-emergence, 480 h, use rate 2 gai/ha, 20 DAT
[7] = 240 h, use rate 4 gai/ha, 10 DAT
[8] = 240 h, use rate 16 gai/ha, 10 DAT

Compound: COc1c(Br)cc(F)c(F)c1Nc1nc(N)nc(C(C)(C)F)n1 [Compound I-2]
- inhibition at 2 g/ha (Ambrosia artemisiifolia; 240 h, PRE, use rate 2 gai/ha, 10 DAT, read-out: % activity): 20%
- inhibition at 4 g/ha (Ambrosia artemisiifolia; 240 h, PRE, 10 DAT): 20%
- inhibition at 8 g/ha (Ambrosia artemisiifolia; 240 h, PRE, 10 DAT, read-out: % activity): 35%
- inhibition at 16 g/ha (Ambrosia artemisiifolia; 240 h, PRE, use rate 16 gai/ha, 10 DAT): 50%
- pest or weed control at 8 g/ha (Ambrosia artemisiifolia; 432 h, PRE, AMBEL, I-2 solo 8 gai/ha, 18 DAT): 70%
- inhibition at 2 g/ha (Ambrosia artemisiifolia; 480 h, AMBEL PRE, 20 DAT, use rate 2 gai/ha, read-out: % activity): 35%
- inhibition at 8 g/ha (Ambrosia artemisiifolia; 480 h, AMBEL PRE, 20 DAT, read-out: % activity): 90%
- pest or weed control at 8 g/ha (Ambrosia artemisiifolia; 480 h, PRE, 8 gai/ha, 20 DAT): 90%
- inhibition at 2 g/ha (Ambrosia artemisiifolia; 480 h, PRE, AMBEL, 2 gai/ha, 20 DAT, read-out: % activity solo application): 0%
- inhibition at 2 g/ha (Ambrosia artemisiifolia; 480 h, PRE, AMBEL, use rate 2 gai/ha, 20 DAT, read-out: solo application % activity): 0%
- inhibition at 8 g/ha (Ambrosia artemisiifolia; 480 h, PRE, 20 DAT, read-out: % activity): 80%
- inhibition at 2 g/ha (Ambrosia artemisiifolia; AMBEL PRE, use rate 2 gai/ha, read-out: % activity): 30%
- inhibition at 4 g/ha (Ambrosia artemisiifolia; PRE, AMBEL): 20%
- inhibition at 8 g/ha (Avena fatua): 50%
- inhibition at 8 g/ha (Brachiaria decumbens; BRADC PRE): 80%
- inhibition at 8 g/ha (Brachiaria decumbens; PRE, BRADC): 70%
- pest or weed control at 8 g/ha (Commelina benghalensis [1]; Commelina benghalensis, pre-emergence, 432 h, PRE, COMBE, I-2 solo 8 gai/ha, 18 DAT): 25%
- inhibition at 2 g/ha (Commelina benghalensis [1]; Commelina benghalensis, pre-emergence, 480 h, COMBE PRE, 20 DAT, use rate 2 gai/ha, read-out: % activity): 20%
- inhibition at 8 g/ha (Commelina benghalensis [1]; Commelina benghalensis, pre-emergence, 480 h, COMBE PRE, 20 DAT, use rate 8 gai/ha, read-out: % activity): 60%
- inhibition at 2 g/ha (Commelina benghalensis [1]; Commelina benghalensis, pre-emergence, 480 h, PRE, COMBE, 2 gai/ha, 20 DAT, read-out: % activity solo application): 10%
- inhibition at 8 g/ha (Commelina benghalensis [1]; Commelina benghalensis, pre-emergence, 480 h, PRE, COMBE, 8 gai/ha, 20 DAT, read-out: % activity solo application): 45%
- inhibition at 8 g/ha (Commelina benghalensis [1]; Commelina benghalensis, pre-emergence, 480 h, PRE, COMBE, use rate 8 gai/ha, 20 DAT, read-out: solo application % activity): 45%
- inhibition at 8 g/ha (Commelina benghalensis [1]; Commelina benghalensis, pre-emergence, COMBE PRE, use rate 8 gai/ha, read-out: % activity): 25%
- inhibition at 4 g/ha (Commelina benghalensis [1]; Commelina benghalensis, pre-emergence, PRE, COMBE, use rate 4 gai/ha): 10%
- % activity (Commelina benghalensis [1]; PRE, COMBE, use rate 4 gai/ha): 15%
- inhibition at 4 g/ha (Echinochloa crus-galli [2]; [7]): 20%
- inhibition at 8 g/ha (Echinochloa crus-galli [2]; 240 h, use rate 8 gai/ha, 10 DAT, read-out: % activity): 20%
- inhibition at 16 g/ha (Echinochloa crus-galli [2]; [8]): 25%
- pest or weed control at 2 g/ha (Echinochloa crus-galli [2]; 432 h, ECHCG, I-2 solo 2 gai/ha, 18 DAT): 10%
- pest or weed control at 8 g/ha (Echinochloa crus-galli [2]; 432 h, ECHCG, I-2 solo 8 gai/ha, 18 DAT): 25%
- inhibition at 2 g/ha (Echinochloa crus-galli [2]; 480 h, ECHCG, 2 gai/ha, 20 DAT, read-out: % activity solo application): 0%
- inhibition at 8 g/ha (Echinochloa crus-galli [2]; 480 h, ECHCG, 8 gai/ha, 20 DAT, read-out: % activity solo application): 90%
- inhibition at 2 g/ha (Echinochloa crus-galli [2]; 480 h, ECHCG, use rate 2 gai/ha, 20 DAT, read-out: solo application % activity): 0%
- inhibition at 8 g/ha (Echinochloa crus-galli [2]; 480 h, ECHCG, use rate 8 gai/ha, 20 DAT, read-out: solo application % activity): 90%
- pest or weed control at 2 g/ha (Echinochloa crus-galli [2]; 480 h, 2 gai/ha, 20 DAT): 55%
- inhibition at 8 g/ha (Polygonum convolvulus): 80%
- pest or weed control at 2 g/ha (Amaranthus retroflexus; 432 h, POST, AMARE, I-2 solo 2 gai/ha, 18 DAT): 55%
- pest or weed control at 8 g/ha (Amaranthus retroflexus; 432 h, POST, AMARE, I-2 solo 8 gai/ha, 18 DAT): 70%
- inhibition at 2 g/ha (Amaranthus retroflexus; 480 h, AMARE POST, 20 DAT, use rate 2 gai/ha, read-out: % activity): 65%
- inhibition at 8 g/ha (Amaranthus retroflexus; 480 h, AMARE POST, 20 DAT, use rate 8 gai/ha, read-out: % activity): 65%
- pest or weed control at 8 g/ha (Amaranthus retroflexus; 480 h, POST, 8 gai/ha, 20 DAT): 65%
- inhibition at 2 g/ha (Amaranthus retroflexus; 480 h, POST, AMARE, 2 gai/ha, 20 DAT, read-out: % activity solo application): 40%
- inhibition at 8 g/ha (Amaranthus retroflexus; 480 h, POST, AMARE, 8 gai/ha, 20 DAT, read-out: % activity solo application): 75%
- inhibition at 2 g/ha (Amaranthus retroflexus; 480 h, POST, AMARE, use rate 2 gai/ha, 20 DAT, read-out: solo application % activity): 40%
- inhibition at 2 g/ha (Amaranthus retroflexus; 480 h, POST, use rate 2 gai/ha, 20 DAT, read-out: % activity): 75%
- inhibition at 4 g/ha (Commelina benghalensis [3]): 0%
- pest or weed control at 2 g/ha (Echinochloa crus-galli [4]; 432 h, POST, ECHCG, I-2 solo 2 gai/ha, 18 DAT): 0%
- pest or weed control at 8 g/ha (Echinochloa crus-galli [4]; 432 h, POST, ECHCG, I-2 solo 8 gai/ha, 18 DAT): 15%
- inhibition at 2 g/ha (Echinochloa crus-galli [4]; 480 h, ECHCG POST, 20 DAT, use rate 2 gai/ha, read-out: % activity): 0%
- inhibition at 4 g/ha (Echinochloa crus-galli [4]; 480 h, POST, ECHCG, 20 DAT): 0%
- inhibition at 4 g/ha (Echinochloa crus-galli [4]; POST, ECHCG): 25%
- inhibition at 4 g/ha (Setaria viridis; use rate 4 gai/ha): 20%
- inhibition at 8 g/ha (Setaria viridis; use rate 8 gai/ha): 25%
- inhibition at 4 g/ha (AMAPA [5]; [7]): 40%
- inhibition at 8 g/ha (AMAPA [5]; 240 h, 10 DAT): 70%
- inhibition at 16 g/ha (AMAPA [5]; [8]): 75%
- inhibition at 2 g/ha (AMAPA [5]; 480 h, use rate 2 gai/ha, 20 DAT): 40%
- inhibition at 8 g/ha (AMAPA [5]; 480 h, 20 DAT): 75%
- inhibition at 2 g/ha (AMAPA [6]): 30%

From patent US20260007133A1, “HERBICIDAL COMPOSITION COMPRISING AZINE COMPOUNDS” (BASF SE, priority 2022, published 2026)
